Source: ChEMBL document CHEMBL3616395, “Discovery of 4-arylamido 3-methyl isoxazole derivatives as novel FMS kinase inhibitors” (Eur J Med Chem, 2015)
Calls of active or inactive are those of the source. The calls are words filed in the database; no cut-off is given here.

Legend:
[1] = tested on: U-937; test: Antiproliferative activity against human U937 cells after 24 hrs by MTT assay; type: functional; settings: U-937, 24 h
[2] = Cytotoxicity against human HS27 cells after 24 hrs by MTT assay; type: cell-based
[3] = tested on: A375P; test: Antiproliferative activity against human A375P cells after 24 hrs by MTT assay; type: functional, cell-based

| GI50 [1] [µM] | Compound | GI50 at 24 h [2] [µM] | Activity [3] |
| --- | --- | --- | --- |
| > 30 | Cc1ccc(NC(=O)c2ccc(-c3ccccc3)cc2)cc1NC(=O)c1cnoc1C | > 30 | inactive |
| > 30 | Cc1cc(NC(=O)Nc2cccc(C(F)(F)F)c2)ccc1NC(=O)c1cnoc1C | > 30 | inactive |
| 0.019 | Cc1ccc(NC(=O)c2cc(-n3ccnc3C)cc(C(F)(F)F)c2)cc1NC(=O)c1cnoc1C | > 30 | inactive |
| > 30 | Cc1ccc(NC(=O)Cc2c[nH]c3ccccc23)cc1NC(=O)c1cnoc1C | > 30 | inactive |
| > 30 | Cc1cc(NC(=O)Nc2ccccc2F)ccc1NC(=O)c1cnoc1C | > 30 | inactive |
| > 30 | CCCS(=O)(=O)Nc1ccc(C)c(NC(=O)c2cnoc2C)c1 | > 30 | inactive |
| 0.026 | Cc1ccc(NC(=O)c2cc(-n3cncc3C)cc(C(F)(F)F)c2)cc1NC(=O)c1cnoc1C | > 30 | inactive |
| > 30 | Cc1ccc(NC(=O)Nc2ccccc2F)cc1NC(=O)c1cnoc1C | > 30 | inactive |
| 0.465 | Cc1ccc(NC(=O)c2ccc(N3CCOCC3)c(C(F)(F)F)c2)cc1NC(=O)c1cnoc1C | > 30 | inactive |
| > 30 | Cc1ccc(NC(=O)Cc2ccccc2F)cc1NC(=O)c1cnoc1C | > 30 | inactive |
| > 30 | Cc1cc(NC(=O)Nc2cccc(Cl)c2)ccc1NC(=O)c1cnoc1C | > 30 | inactive |
| > 30 | Cc1ccc(NC(=O)c2ccc(Cl)c(C(F)(F)F)c2)cc1NC(=O)c1cnoc1C | > 30 | inactive |
| > 30 | Cc1ccc(NC(=O)Nc2ccc(Cl)cc2)cc1NC(=O)c1cnoc1C | > 30 | inactive |
| > 30 | Cc1ccc(NC(=O)Nc2cccc(Cl)c2)cc1NC(=O)c1cnoc1C | > 30 | inactive |
| > 30 | Cc1ccc(NC(=O)c2ccccc2Sc2ccccc2C#N)cc1NC(=O)c1cnoc1C | > 30 | inactive |
| > 30 | Cc1ccc(NC(=O)C2(C)CCc3c(C)c(O)c(C)c(C)c3O2)cc1NC(=O)c1cnoc1C (stereo unspecified) | > 30 | inactive |
| > 30 | Cc1ccc(NC(=O)C(c2ccc(Cl)cc2)c2ccc(Cl)cc2)cc1NC(=O)c1cnoc1C | > 30 | inactive |
